We go through 22 compounds from patent US4372953A, “Tetrazole derivatives, and anti-ulcer composition containing the same” (Otsuka Pharmaceutical Company, Limited, priority 1980, dated 1983).

Data set [1] concerns indomethacin-induced ulcer. Briefly: Indomethacin-induced ulcer. The data set is classed as in vivo, male Wistar rats. The settings on record: Rattus norvegicus, 5 h, oral, 30 minutes before indomethacin 20 mg/kg s.c., read-out: Inhibitory ratio of indomethacin-induced ulcer. The method, then:
After male Wistar rats weighing about 160 g was fasted for 24 hours, indomethacin was subcutaneously administered to the rats in a dose of 20 mg/kg in the form of a suspension in a mixture of 0.5% CMC and a small amount of Tween 80 (i.e. polyoxyethylene sorbitan monooleate). After 5 hours, the rats were killed and the stomach was isolated. Into the isolated stomach 10% formalin (8 ml) was poured and settled. The stomach was cut open at the greater curvature, and the length of each ulcer on the membrane was measured, based on which results the inhibitory ratio of the indomethacin-induced ulcer of the test compounds was calculated in the same manner as in Pharmacological Test 2. The test compound was orally administered to the rats in a dose of 100 mg/kg in the form of 0.5% CMC suspension 30 minutes before the administration of indomethacin.
(§1) In the table, the inhibitory ratio (%) was evaluated as follows: […]

A further data set has as its system stress ulcer. Kind of data set: Stress ulcer (restraint and water immersion). It is filed as in vivo, male Wistar rats. The settings on record: Rattus norvegicus, po, 7 h, read-out: Inhibitory ratio of stress ulcer; for inhibition in vivo at 300 mg/kg: 0.5% CMC suspension; for inhibition in vivo: concentration of 1×10^-3 mole. Here is the method: After male Wistar rats weighing about 170 g was fasted for 24 hours, the rats were restrained in a stress cage and dipped in water bath at 23° C. till chest of the animals. After 7 hours, the rats were killed and the stomach was isolated. Into the isolated stomach 10% formalin (8 ml) was poured and settled. The stomach was cut open at the greater curvature, and the length of each ulcer on the membrane was measured. Sum of the length of all ulcers was shown as ulcer index (UI). The test compound was orally administered to the rats before restraint in a stress cage in a dose of 300 mg/kg in the form of 0.5% CMC suspension in case of test compounds 3, 4, 6, 15 and 27 and in a concentration of 1×10^-3 mole in case of other test compounds. As a control, only the solvent (CMC solution) was administered likewise. The inhibitory ratio (%) of stress ulcer of the test compounds was calculated by the following equation: [formula]
as §1

The test system of another data set is gastric juice secretion. Kind of data set: Shay rat pylorus ligation method (gastric juice secretion-inhibiting activity). It is filed as in vivo, male Wistar rats. The settings on record: 4 hours after ligation; for inhibition in vivo at 100 mg/kg / inhibition in vivo at 200 mg/kg: Rattus norvegicus, 4 h; for inhibition in vivo at 200 mg/kg: sc, subcutaneous route. The method, then:
The pharmacological activities of the compounds (1) were tested by a Shay rat pylorus ligation method (cf. H. Shay et al: Gastroenterol., Vol. 5, page 43, 1945) which is the most popular method for testing of gastric juice secretion-inhibiting activity. The test was carried out by using male Wistar rats, weighing about 170 g and fasting for 24 hours.
Test compounds were administered 30 minutes before the pylorus ligation in a dose of 100 mg/kg in subcutaneous route in case of test compounds 37, 38, 50, 51 and 52, in a dose of 200 mg/kg in subcutaneous route in case of test compounds 105 and 106 and in dose of 100 mg/kg in duodenal route in case of other test compounds, and the volume, total acidity and pepsin activity of the gastric juice were measured 4 hours after the ligation. As a control, a saline solution was administered instead of the test compound. The inhibitory ratio (%) of the test compounds were calculated when the inhibitory activities of the control were counted as zero (0).
as §1

Data set [2] can be described thus: Acute toxicity (LD50, p.o.). The settings on record: rat, in vivo; oral, male Wistar rats. The method, then:
The test compounds were orally administered to male Wistar rats, and the half lethal dose (LD50) was measured.

[3] abbreviates: 100 mg/kg, duodenal route, star-marked compounds, read-out: Inhibitory ratio, total acidity.
Setting [4] is: 100 mg/kg, duodenal route, star-marked compounds, read-out: Inhibitory ratio, volume of gastric juice.
[5] abbreviates: 100 mg/kg, duodenal route, star-marked compounds, read-out: Inhibitory ratio, pepsin activity.
The mark [6] stands for this setting: 100 mg/kg, duodenal route, read-out: Inhibitory ratio, volume of gastric juice.
[7] abbreviates: 100 mg/kg, duodenal route, read-out: Inhibitory ratio, pepsin activity.
Setting [8] is: 100 mg/kg, duodenal route, read-out: Inhibitory ratio, total acidity.
Where [9] appears, read: read-out: Inhibitory ratio, pepsin activity.
[10] abbreviates: read-out: Inhibitory ratio, total acidity.
[11] abbreviates: read-out: Inhibitory ratio, volume of gastric juice.

SMILES strings stand for the structures. Like-named read-outs stand apart in the source and are kept apart here.

For `Cn1nnnc1SCCCSC1CCCCC1` [Test compound 3, 1-Methyl-5-(3-cyclohexylthiopropyl)thio-1,2,3,4-tetrazole], the inhibition in vivo at 100 mg/kg was 30 to 60% in data set [1], > 60% in the data set with gastric juice secretion (setting [3]) and > 60% in the data set with gastric juice secretion (setting [4]). Besides, the inhibition in vivo at 300 mg/kg in the data set with stress ulcer was > 60%.

As for `Cn1nnnc1SCCCCCSc1nnnn1C` [Test compound 5, 1-Methyl-5-[5-(1-methyl-1,2,3,4-tetrazol-5-yl)thiopentyl]thio-1,2,3,4-tetrazole], the inhibition in vivo at 100 mg/kg was > 60% in data set [1], 30 to 60% in the data set on gastric juice secretion (setting [5]), > 60% in the data set on gastric juice secretion (setting [3]) and > 60% in the data set on gastric juice secretion (setting [4]). Besides, the inhibition in vivo in the data set with stress ulcer is > 60%.

The term LD50 denotes the dose at which mortality reaches 50%. Read a high LD50 as lower toxicity. Regarding `CCSCCCSc1nnnn1C` [Test compound 7, 1-Methyl-5-(3-ethylthiopropyl)thio-1,2,3,4-tetrazole], in the data set with stress ulcer, the inhibition in vivo was > 60%. In data set [2], the LD50 was > 500 mg/kg. The inhibition in vivo at 100 mg/kg with gastric juice secretion (setting [6]) is > 50%.

Take `CC(CSc1nnnn1C)CSc1nnnn1C` [Test compound 9, 1-Methyl-5-[2-methyl-3-(1-methyl-1,2,3,4-tetrazol-5-yl)thiopropyl]thio-1,2,3,4-tetrazole]: in data set [1], the inhibition in vivo at 100 mg/kg is > 60%.

Turning to `Cn1nnnc1SCCSc1ccccn1` [Test compound 31, 1-Methyl-5-[2-(2-pyridyl)thioethyl]thio-1,2,3,4-tetrazole], the inhibition in vivo with stress ulcer is > 60%. The inhibition in vivo at 100 mg/kg with gastric juice secretion (setting [6]) is > 50%.

As to `Cn1nnnc1SCCCCCCSc1ccccn1` [Test compound 33, 1-Methyl-5-[6-(2-pyridyl)thiohexyl]thio-1,2,3,4-tetrazole], in the data set on stress ulcer, the inhibition in vivo was > 60%. Moreover, in the data set with gastric juice secretion (setting [6]), the inhibition in vivo at 100 mg/kg lay within 10 to 50%.

In the case of `CC(CSc1ccccn1)CSc1nnnn1C` (stereo not drawn) [Test compound 34, 1-Methyl-5-[2-methyl-3-(2-pyridyl)thiopropyl]thio-1,2,3,4-tetrazole], the inhibition in vivo in the data set on stress ulcer is > 60%. Moreover, the inhibition in vivo at 100 mg/kg in the data set on gastric juice secretion (setting [6]) is > 50%.

For the compound `Cn1nnnc1SCCCCCCSc1nnnn1C` [Test compound 36, 1-Methyl-5-[6-(1-methyl-1,2,3,4-tetrazol-5-yl)thiohexyl]thio-1,2,3,4-tetrazole], the inhibition in vivo with stress ulcer was > 60%. Moreover, in the data set with gastric juice secretion (100 mg/kg, duodenal route), the “Inhibitory ratio, volume of gastric juice” value is “+ +”.

In the case of `Cn1nnnc1SCCC[S+]([O-])c1ccccn1` (stereo not drawn) [Test compound 44, 3-(1-Methyl-1,2,3,4-tetrazol-5-yl)thiopropyl 2-pyridyl sulfoxide], the inhibition in vivo in the data set on stress ulcer is > 60%. In addition, the LD50 in data set [2] was > 500 mg/kg. In addition, the inhibition in vivo at 100 mg/kg in the data set on gastric juice secretion (setting [6]) is > 50%.

As for `Cn1nnnc1SCCCC[S+]([O-])c1nnnn1C` (stereo not drawn) [Test compound 46, 4-(1-Methyl-1,2,3,4-tetrazol-5-yl)thiobutyl 1-methyl-1,2,3,4-tetrazol-5-yl sulfoxide], in the data set with stress ulcer, the inhibition in vivo was > 60%. In addition, the inhibition in vivo at 100 mg/kg with gastric juice secretion (setting [6]) was in the range of 10 to 50%.

Regarding `Cn1nnnc1SCCCC(=O)c1ccccc1` [Test compound 53, 1-Methyl-5-(3-benzoylpropyl)thio-1,2,3,4-tetrazole], in data set [1], the inhibition in vivo at 100 mg/kg is > 60%.

For the compound `Cn1nnnc1SCCCC(=O)c1ccco1` [Test compound 55, 1-Methyl-5-[3-(2-furoyl)propyl]thio-1,2,3,4-tetrazole], the inhibition in vivo with stress ulcer fell in the range of 30 to 60%. In addition, the inhibition in vivo at 100 mg/kg with gastric juice secretion (setting [7]) was 10 to 50%; with gastric juice secretion (setting [8]), > 50%; in the data set with gastric juice secretion (setting [6]) it was > 50%.

For the compound `Cn1nnnc1SCCCC(=O)Cc1ccccc1` [Test compound 57, 1-Methyl-5-(3-benzylcarbonylpropyl)thio-1,2,3,4-tetrazole], the inhibition in vivo with stress ulcer is > 60%. The inhibition in vivo at 100 mg/kg in the data set on gastric juice secretion (setting [7]) is 10 to 50%; with gastric juice secretion (setting [8]), 10 to 50%; with gastric juice secretion (setting [6]), > 50%.

As for `CC(=O)CSc1nnnn1C` [Test compound 67], the inhibition in vivo at 100 mg/kg in data set [1] was > 60%. Moreover, the LD50 in data set [2] was > 500 mg/kg.

As for `Cn1nnnc1SCCCC(=O)c1ccccn1` [Test compound 74, 1-Methyl-5-[3-(2-pyridyl)carbonylpropyl]thio-1,2,3,4-tetrazole], in the data set with stress ulcer, the inhibition in vivo was > 60%. For the same compound, the inhibition in vivo at 100 mg/kg with gastric juice secretion (setting [6]) is > 50%.

As for `Cc1ncsc1C(=O)CCCSc1nnnn1C` [Test compound 80, 1-Methyl-5-[3-(4-methyl-5-thiazolyl)carbonylpropyl]thio-1,2,3,4-tetrazole], in the data set on stress ulcer, the inhibition in vivo was > 60%. In the data set on gastric juice secretion (setting [6]), the inhibition in vivo at 100 mg/kg was > 50%.

For the compound `CCN(CC)CCCSc1nnnn1C` [Test compound 84, 1-Methyl-5-[3-(N,N-diethylamino)propyl]thio-1,2,3,4-tetrazole], the inhibition in vivo at 100 mg/kg in data set [1] is > 60%; with gastric juice secretion (setting [7]), 10 to 50%; in the data set on gastric juice secretion (setting [8]), 10 to 50%; in the data set on gastric juice secretion (setting [6]), 10 to 50%. Moreover, in the data set with stress ulcer, the inhibition in vivo is > 60%.

In the case of `Cn1nnnc1SCCCNC(=O)c1ccccc1` [Test compound 88, 1-Methyl-5-(3-benzoylaminopropyl)thio-1,2,3,4-tetrazole], in the data set with stress ulcer, the inhibition in vivo was > 60%. Moreover, the inhibition in vivo at 100 mg/kg in the data set with gastric juice secretion (setting [6]) is > 50%.

As for `CCN(CC)C(=O)CCCn1nnnc1C` [Test compound 105, N,N-Diethyl-4-(5-methyl-1,2,3,4-tetrazol-1-yl)butyramide], the inhibition in vivo at 100 mg/kg in data set [1] fell in the range of 30 to 60%. In addition, the inhibition in vivo in the data set with stress ulcer was > 60%. For the same compound, the LD50 in data set [2] is > 500 mg/kg. In addition, the inhibition in vivo at 200 mg/kg in the data set with gastric juice secretion (setting [9]), with gastric juice secretion (setting [10]) and in the data set with gastric juice secretion (setting [11]) was 10 to 50% in each case.

For the compound `CCN(C(=O)CCCn1nnnc1C)C1CCCCC1` [Test compound 106, N-Ethyl-N-cyclohexyl-4-(5-methyl-1,2,3,4-tetrazol-1-yl)butyramide], the inhibition in vivo at 100 mg/kg in data set [1] lay within 30 to 60%. For the same compound, the LD50 in data set [2] was > 500 mg/kg. Besides, the inhibition in vivo at 200 mg/kg in the data set on gastric juice secretion (setting [9]), in the data set with gastric juice secretion (setting [10]) and with gastric juice secretion (setting [11]) was 10 to 50% in each case.

`Cn1nnnc1SCCCSc1ccccn1` [compound 2]: the inhibition in vivo with stress ulcer was > 60%. Besides, the inhibition in vivo at 100 mg/kg in the data set on gastric juice secretion (setting [5]) is 30 to 60%; in the data set on gastric juice secretion (setting [3]) it was > 60%; with gastric juice secretion (setting [4]) it was > 60%.

`Cc1nnc(SCCCSc2nnnn2C)o1` [compound 4]: the inhibition in vivo at 100 mg/kg in data set [1] was > 60%; with gastric juice secretion (setting [5]) it was 30 to 60%; with gastric juice secretion (setting [3]), > 60%; with gastric juice secretion (setting [4]), > 60%. Moreover, in the data set with stress ulcer, the inhibition in vivo at 300 mg/kg was > 60%. Also, the median lethal dose (LD50) in data set [2] is > 500 mg/kg.
